Each compound was assayed on HCV replicon cells (assay: Cell-based HCV replicon assay (replicon RNA by Taqman real time PCR)). Details: HCV replicon 1b, cells harvested on day 3; read-out: 1b EC50.

SMILES	EC50 [µM]
CCCOP1(=O)OC[C@H]2O[C@@H](n3ccc(=O)[nH]c3=O)[C@](C)(N=[N+]=[N-])[C@@H]2O1 (single isomer, unassigned) [Compound 565]	> 100
CC(C)OP1(=O)OC[C@H]2O[C@@H](n3ccc(=O)[nH]c3=O)[C@](C)(N=[N+]=[N-])[C@@H]2O1 (single isomer, unassigned) [Compound 564]	> 100

Same assay, conditions: Hepatitis C virus, 72 h, HCV replicon 1b, cells harvested on day 3; read-out: 1b EC50

SMILES	EC50 [µM]
CCCOP1(=O)OC[C@H]2O[C@@H](n3ccc(=O)[nH]c3=O)[C@](C)(N=[N+]=[N-])[C@@H]2O1 (stereo partly drawn) [Compound 85]	> 100
C[C@H](NP(=O)(O)OC[C@H]1O[C@@H](n2ccc(=O)[nH]c2=O)[C@](C)(N=[N+]=[N-])[C@@H]1O)C(=O)OC1CCCCC1 (single isomer, unassigned) [Compound 329]	> 100
C[C@@]1(N=[N+]=[N-])[C@H](O)[C@@H](CO)O[C@H]1n1ccc(=O)[nH]c1=O [Compound 4]	> 100
COc1nc(N)nc2c1ncn2[C@@H]1O[C@H](CO)[C@@H](O)[C@@]1(C)N=[N+]=[N-] [Compound 51]	> 100

Same assay, conditions: Hepatitis C virus, 72 h, read-out: 1b EC50

SMILES	EC50 [µM]
CCOC(=O)[C@H](C)NP(=O)(OC[C@H]1O[C@@H](n2cnc3c(OCC)nc(N)nc32)[C@](C)(N=[N+]=[N-])[C@@H]1O)Oc1ccc(F)cc1 (stereo partly drawn) [Compound 141]	0.2
CCOC(=O)[C@H](C)NP(=O)(OC[C@H]1O[C@@H](n2ccc(=O)[nH]c2=O)[C@](C)(N=[N+]=[N-])[C@@H]1O)Oc1ccc(F)cc1 (stereo partly drawn) [Compound 140]	1.4
COc1nc(N)nc2c1ncn2[C@@H]1O[C@H](COP(=O)(N[C@@H](C)C(=O)OC2CCCCC2)Oc2ccc(F)cc2)[C@@H](O)[C@@]1(C)N=[N+]=[N-] (stereo partly drawn) [Compound 241]	1.9
CCOP1(=O)OC[C@H]2O[C@@H](n3ccc(=O)[nH]c3=O)[C@](C)(N=[N+]=[N-])[C@@H]2O1 (stereo partly drawn) [Compound 567]	> 100
COC(=O)[C@H](C)NP(=O)(OC[C@H]1O[C@@H](n2ccc(N)nc2=O)[C@](C)(N=[N+]=[N-])[C@@H]1O)Oc1cccc2ccccc12 (stereo partly drawn) [Compound 47]	0.4
COc1nc(N)nc2c1ncn2[C@@H]1O[C@H](COP(=O)(N[C@@H](C)C(=O)OC(C)C)Oc2ccc(Cl)c(Cl)c2)[C@@H](O)[C@@]1(C)N=[N+]=[N-] (stereo partly drawn) [Compound 244]	6
C[C@H](NP(=O)(OC[C@H]1O[C@@H](n2ccc(N)nc2=O)[C@](C)(N=[N+]=[N-])[C@@H]1O)Oc1ccccc1)C(=O)OC1CCCC1 (stereo partly drawn) [Compound 97]	15
CCOc1nc(N)nc2c1ncn2[C@@H]1O[C@@H]2COP(=O)(OC)O[C@H]2[C@@]1(C)N=[N+]=[N-] (stereo partly drawn) [Compound 25]	13
CCCOC(=O)[C@H](C)NP(=O)(OC[C@H]1O[C@@H](n2cnc3c(OC)nc(N)nc32)[C@](C)(N=[N+]=[N-])[C@@H]1O)Oc1ccccc1 (stereo partly drawn) [Compound 78]	1.1
CCOc1nc(N)nc2c1ncn2[C@@H]1O[C@H](COP(=O)(N[C@@H](C)C(=O)OC(C)C)Oc2ccc3c(c2)OCO3)[C@@H](O)[C@@]1(C)N=[N+]=[N-] (stereo partly drawn) [Compound 72]	0.8
CC(C)OC(=O)[C@H](C)NP(=O)(OC[C@H]1O[C@@H](n2ccc(=O)[nH]c2=O)[C@](C)(N=[N+]=[N-])[C@@H]1O)Oc1ccccc1Cl (stereo partly drawn) [Compound 39]	49
COC(=O)[C@H](C)NP(=O)(OC[C@H]1O[C@@H](n2ccc(N)nc2=O)[C@](C)(N=[N+]=[N-])[C@@H]1O)Oc1ccc(Cl)c(Cl)c1 (single isomer, unassigned) [Compound 343]	61
COC(=O)[C@H](C)NP(=O)(OC[C@H]1O[C@@H](n2ccc(=O)[nH]c2=O)[C@](C)(N=[N+]=[N-])[C@@H]1O)Oc1ccc(Cl)c(Cl)c1 (stereo partly drawn) [Compound 229]	0.03
COC(=O)[C@H](C)NP(=O)(OC[C@H]1O[C@@H](n2cnc3c(OC)nc(N)nc32)[C@](C)(N=[N+]=[N-])[C@@H]1O)Oc1ccc(Cl)cc1 (stereo partly drawn) [Compound 79]	0.2
COC(=O)[C@H](C)NP(=O)(OC[C@H]1O[C@@H](n2ccc(N)nc2=O)[C@](C)(N=[N+]=[N-])[C@@H]1O)Oc1ccccc1Cl (single isomer, unassigned) [Compound 330]	12
CCOC(=O)c1cccc(OP(=O)(N[C@@H](C)C(=O)OC)OC[C@H]2O[C@@H](n3ccc(=O)[nH]c3=O)[C@](C)(N=[N+]=[N-])[C@@H]2O)c1 (single isomer, unassigned) [Compound 213]	7.9
CC(C)OC(=O)[C@H](C)NP(=O)(OC[C@H]1O[C@@H](n2ccc(=O)[nH]c2=O)[C@](C)(N=[N+]=[N-])[C@@H]1O)Oc1ccccc1 (single isomer, unassigned) [Compound 157]	49
CCOC(=O)[C@H](C)NP(=O)(OC[C@H]1O[C@@H](n2ccc(N)nc2=O)[C@](C)(N=[N+]=[N-])[C@@H]1O)Oc1ccc(Cl)cc1 (stereo partly drawn) [Compound 198]	0.6
CCCOC(=O)[C@H](C)NP(=O)(OC[C@H]1O[C@@H](n2cnc3c(OCC)nc(N)nc32)[C@](C)(N=[N+]=[N-])[C@@H]1O)Oc1ccccc1 (stereo partly drawn) [Compound 29]	0.5
CCCCOC(=O)[C@H](C)NP(=O)(OC[C@H]1O[C@@H](n2cnc3c(OC)nc(N)nc32)[C@](C)(N=[N+]=[N-])[C@@H]1O)Oc1ccccc1 (stereo partly drawn) [Compound 249]	0.9
CCCOC(=O)[C@H](C)NP(=O)(OC[C@H]1O[C@@H](n2ccc(=O)[nH]c2=O)[C@](C)(N=[N+]=[N-])[C@@H]1O)Oc1ccccc1 (stereo partly drawn) [Compound 28]	2.3
COc1nc(N)nc2c1ncn2[C@@H]1O[C@H](COP(=O)(N[C@@H](C)C(=O)OCC(C)C)Oc2ccccc2)[C@@H](O)[C@@]1(C)N=[N+]=[N-] (stereo partly drawn) [Compound 245]	0.4
CCCOC(=O)[C@H](C)NP(=O)(OC[C@H]1O[C@@H](n2ccc(=O)[nH]c2=O)[C@](C)(N=[N+]=[N-])[C@@H]1O)Oc1cccc2ccccc12 (stereo partly drawn) [Compound 374]	5.6
C[C@H](NP(=O)(OC[C@H]1O[C@@H](n2ccc(N)nc2=O)[C@](C)(N=[N+]=[N-])[C@@H]1O)Oc1ccc(Cl)cc1)C(=O)OC1CCCCC1 (single isomer, unassigned) [Compound 339]	14
CCCCOC(=O)[C@H](C)NP(=O)(OC[C@H]1O[C@@H](n2ccc(=O)[nH]c2=O)[C@](C)(N=[N+]=[N-])[C@@H]1O)Oc1ccccc1Cl (stereo partly drawn) [Compound 377]	6.8
COC(=O)[C@H](C)NP(=O)(OC)OC[C@H]1O[C@@H](n2ccc(N)nc2=O)[C@](C)(N=[N+]=[N-])[C@@H]1O (single isomer, unassigned) [Compound 345]	> 100

Same assay, conditions: read-out: 1b EC50

SMILES	EC50 [µM]
C[C@H](NP(=O)(OC[C@H]1O[C@@H](n2ccc(N)nc2=O)[C@](C)(N=[N+]=[N-])[C@@H]1O)Oc1ccccc1)C(=O)OC1CCCC1 (stereo partly drawn) [Compound 205]	15
COc1nc(N)nc2c1ncn2[C@@H]1O[C@H](COP(=O)(N[C@@H](C)C(=O)OC2CCCCC2)Oc2ccccc2)[C@@H](O)[C@@]1(C)N=[N+]=[N-] (single isomer, unassigned) [Compound 275]	1.5
COc1nc(N)nc2c1ncn2[C@@H]1O[C@H](COP(=O)(N[C@@H](C)C(=O)OC(C)C)Oc2ccccc2Cl)[C@@H](O)[C@@]1(C)N=[N+]=[N-] (single isomer, unassigned) [Compound 280]	5
C[C@H](NP(=O)(OC[C@H]1O[C@@H](n2ccc(=O)[nH]c2=O)[C@](C)(N=[N+]=[N-])[C@@H]1O)Oc1ccccc1)C(=O)OCc1ccccc1 (single isomer, unassigned) [Compound 300]	29
C[C@H](NP(=O)(OC[C@H]1O[C@@H](n2ccc(N)nc2=O)[C@](C)(N=[N+]=[N-])[C@@H]1O)Oc1ccccc1Cl)C(=O)OCC(C)(C)C (single isomer, unassigned) [Compound 181]	3.8
COC(=O)[C@H](C)NP(=O)(OC[C@H]1O[C@@H](n2ccc(N)nc2=O)[C@](C)(N=[N+]=[N-])[C@@H]1O)Oc1ccc(Cl)c(Cl)c1 (single isomer, unassigned) [Compound 193]	61
C[C@H](NP(=O)(OC[C@H]1O[C@@H](n2ccc(=O)[nH]c2=O)[C@](C)(N=[N+]=[N-])[C@@H]1O)Oc1ccccc1)C(=O)OCC(C)(C)C (single isomer, unassigned) [Compound 154]	0.7
COc1nc(N)nc2c1ncn2[C@@H]1O[C@H](COP(=O)(N[C@@H](C)C(=O)OC(C)C)Oc2ccc(Cl)c(Cl)c2)[C@@H](O)[C@@]1(C)N=[N+]=[N-] (single isomer, unassigned) [Compound 283]	8.4
C[C@H](NP(=O)(OC[C@H]1O[C@@H](n2ccc(=O)[nH]c2=O)[C@](C)(N=[N+]=[N-])[C@@H]1O)Oc1ccc(F)cc1)C(=O)OC1CCCCC1 (single isomer, unassigned) [Compound 233]	2.1
CC(C)OC(=O)[C@H](C)NP(=O)(OC[C@H]1O[C@@H](n2ccc(N)nc2=O)[C@](C)(N=[N+]=[N-])[C@@H]1O)Oc1ccccc1Cl (single isomer, unassigned) [Compound 332]	20
CCOC(=O)[C@H](C)NP(=O)(OC[C@H]1O[C@@H](n2cnc3c(OC)nc(N)nc32)[C@](C)(N=[N+]=[N-])[C@@H]1O)Oc1ccc(F)cc1 (single isomer, unassigned) [Compound 271]	4.4
COc1nc(N)nc2c1ncn2[C@@H]1O[C@H](COP(=O)(N[C@@H](C)C(=O)OCC(C)C)Oc2ccccc2)C(O)[C@@]1(C)N=[N+]=[N-] (single isomer, unassigned) [Compound 277]	2.7
COC(=O)[C@H](C)NP(=O)(OC[C@H]1O[C@@H](n2ccc(=O)[nH]c2=O)[C@](C)(N=[N+]=[N-])[C@@H]1O)Oc1ccc(Cl)cc1 (stereo partly drawn) [Compound 325]	4
COC(=O)[C@H](C)NP(=O)(OC[C@H]1O[C@@H](n2ccc(=O)[nH]c2=O)[C@](C)(N=[N+]=[N-])[C@@H]1O)Oc1cccc2ccccc12 (single isomer, unassigned) [Compound 217]	2.1
COC(=O)c1ccccc1OP(=O)(N[C@@H](C)C(=O)OC)OC[C@H]1O[C@@H](n2ccc(=O)[nH]c2=O)[C@](C)(N=[N+]=[N-])[C@@H]1O (single isomer, unassigned) [Compound 216]	1.3
COC(=O)[C@H](C)NP(=O)(OC[C@H]1O[C@@H](n2ccc(N)nc2=O)[C@](C)(N=[N+]=[N-])[C@@H]1O)Oc1ccccc1Cl (single isomer, unassigned) [Compound 201]	12

— patent US9156872B2, “2′-azido substituted nucleoside derivatives and methods of use thereof for the treatment of viral diseases” (priority 2011, dated 2015)
